Measurements published in patent US7812008B2, “9-substituted tetracyclines” (Wyeth LLC, priority 2005, dated 2010).
≈ marks a conversion by molar mass, not a printed value. Read-outs that look alike come from different tables or passages of the source.

Tests used:
[1] = system: E. faecalis GC2267 (tet(L) + (M) + (S)); assay: MIC broth microdilution, E. faecalis GC2267 (tet(L) + (M) + (S)); format: cell-based; conditions: MHBII, 18-22 hours at 35° C.
Method: (§1) Methods for in Vitro Antibacterial Evaluation
(§2) The minimum inhibitory concentration (MIC)
(§3) Antimicrobial susceptibility testing. The in vitro activities of representative examples of antibiotics of the invention are determined by the broth microdilution method as recommended by the National Committee for Clinical Laboratory Standards (NCCLS) (1). Mueller-Hinton II broth (MHBII)(BBL Cockeysville, Md.) is the medium employed in the testing procedures. Microtiter plates containing serial dilutions of each antimicrobial agent are inoculated with each organism to yield the appropriate density (10^5 CFU/ml) in a 100 μl final volume. The plates are incubated for 18-22 hours at 35° C. in ambient air. […] NCCLS. 2000. Methods for Dilution Antimicrobial Susceptibility Tests for Bacteria That Grow Aerobically; Approved Standards: M7-A5, vol. 20. National Committe for Clinical Laboratory Standards, Wayne, Pa.

[2] = system: Staphylococcal aureus Smith M P; assay: In vivo antibacterial evaluation, acute lethal infection in mice; conditions: single oral dose 30 minutes after intraperitoneal challenge, female CD-1 mice, 7 day survival ratios, 3 tests pooled; for ED50: Mus musculus, read-out: SOD* ED50
Method: In Vivo Antibacterial Evaluation: The therapeutic effects of representative examples of the invention are determined against acute lethal infection with Staphylococcal aureus Smith M P, Female mice, strain CD-1 (Charles River Laboratoties), ca. 20 grams, are challenged by an intraperitoneal injection of sufficient bacteria (suspended in broth or hog mucin) to kill non-treated controls within 24-28 hours. Antibacterial agents, contained in 0.5 ml of 0.2% aqueous agar, are administered subcutaneously or orally 30 minutes after injection. When an oral dosing schedule is used, animal are deprived of food for 5 hours before and 2 hours after injection. Five mice are treated at each dose level. The 7 day survival ratios from 3 separate tests are pooled for calculation of median effective dose (ED50).

[3] = system: S. aureus GC2216 (ATCC Control); assay: MIC broth microdilution, S. aureus GC2216 (ATCC Control); format: cell-based; conditions: MHBII, 18-22 hours at 35° C.
Method: as §1, §2, §3

[4] = system: S. aureus GC6467 (tet(M) + (K)); assay: MIC broth microdilution, S. aureus GC6467 (tet(M) + (K)); format: cell-based; conditions: MHBII, 18-22 hours at 35° C.
Method: as §1, §2, §3

[5] = system: S. pneumoniae* GC4465 (Clinical); assay: MIC broth microdilution, S. pneumoniae GC4465 (Clinical); format: cell-based; conditions: 18-22 hours at 35° C.
Method: as §1, §2, §3

[6] = system: E. coli GC4560 (IMP mutant); assay: MIC broth microdilution, E. coli GC4560 (IMP mutant); format: cell-based; conditions: MHBII, 18-22 hours at 35° C.
Method: as §1, §2, §3

[7] = system: Staphylococcal aureus Smith M P; assay: In vivo antibacterial evaluation, acute lethal infection in mice; conditions: single intraveneous dose, female CD-1 mice, 7 day survival ratios, 3 tests pooled; for ED50: Mus musculus, iv, 168 h, read-out: SIV* ED50
[8] = system: S. aureus GC1079 (tet(K)); assay: MIC broth microdilution, S. aureus GC1079 (tet(K)); format: cell-based; conditions: MHBII, 18-22 hours at 35° C.
Method: as §1, §2, §3

[9] = system: E. coli GC2203 (ATCC Control); assay: MIC broth microdilution, E. coli GC2203 (ATCC Control); format: cell-based; conditions: MHBII, 18-22 hours at 35° C.
Method: as §1, §2, §3

[10] = system: S. aureus GC6466 (tet(M)); assay: MIC broth microdilution, S. aureus GC6466 (tet(M)); format: cell-based; conditions: MHBII, 18-22 hours at 35° C.
Method: as §1, §2, §3

[11] = system: S. pyogenes* GC4563 (Clinical); assay: MIC broth microdilution, S. pyogenes GC4563 (Clinical); format: cell-based; conditions: 18-22 hours at 35° C.
Method: as §1, §2, §3

[12] = system: M. catarrhalis* GC6907 (Clinical); assay: MIC broth microdilution, M. catarrhalis GC6907 (Clinical); format: cell-based; conditions: 18-22 hours at 35° C.
Method: as §1, §2, §3

[13] = system: E. coli GC4559 (parent GC4560); assay: MIC broth microdilution, E. coli GC4559 (parent GC4560); format: cell-based; conditions: MHBII, 18-22 hours at 35° C.
Method: as §1, §2, §3

[14] = system: E. faecalis GC4555 (ATCC Control); assay: MIC broth microdilution, E. faecalis GC4555 (ATCC Control); format: cell-based; conditions: MHBII, 18-22 hours at 35° C.
Method: as §1, §2, §3

E. coli GC1073 (tet(B)) = assay: MIC broth microdilution, E. coli GC1073 (tet(B)); format: cell-based; conditions: MHBII, 18-22 hours at 35° C.
Method: as §1, §2, §3

[15] = system: S. pneumoniae* GC1894 (Clinical); assay: MIC broth microdilution, S. pneumoniae GC1894 (Clinical); format: cell-based; conditions: 18-22 hours at 35° C.
Method: as §1, §2, §3

[16] = system: S. aureus GC4536 (Smith MP -In Vivo); assay: MIC broth microdilution, S. aureus GC4536 (Smith MP -In Vivo); format: cell-based; conditions: MHBII, 18-22 hours at 35° C.
Method: as §1, §2, §3

[17] = system: Staphylococcal aureus Smith M P; assay: MIC reported in Table 2 beside the in vivo ED50; format: cell-based; conditions: Staphylococcus aureus, infecting strain S. aureus Smith MP
Method: Antimicrobial susceptibility testing. The in vitro activities of representative examples of antibiotics of the invention are determined by the broth microdilution method as recommended by the National Committee for Clinical Laboratory Standards (NCCLS) (1). Mueller-Hinton II broth (MHBII)(BBL Cockeysville, Md.) is the medium employed in the testing procedures. Microtiter plates containing serial dilutions of each antimicrobial agent are inoculated with each organism to yield the appropriate density (10^5 CFU/ml) in a 100 μl final volume. The plates are incubated for 18-22 hours at 35° C. in ambient air. […] NCCLS. 2000. Methods for Dilution Antimicrobial Susceptibility Tests for Bacteria That Grow Aerobically; Approved Standards: M7-A5, vol. 20. National Committe for Clinical Laboratory Standards, Wayne, Pa. In Vivo Antibacterial Evaluation: The therapeutic effects of representative examples of the invention are determined against acute lethal infection with Staphylococcal aureus Smith M P, Female mice, strain CD-1 (Charles River Laboratoties), ca. 20 grams, are challenged by an intraperitoneal injection of sufficient bacteria (suspended in broth or hog mucin) to kill non-treated controls within 24-28 hours. Antibacterial agents, contained in 0.5 ml of 0.2% aqueous agar, are administered subcutaneously or orally 30 minutes after injection. When an oral dosing schedule is used, animal are deprived of food for 5 hours before and 2 hours after injection. Five mice are treated at each dose level. The 7 day survival ratios from 3 separate tests are pooled for calculation of median effective dose (ED50).

[18] = system: H. influenzae<> GC6896 (ATCC Control); assay: MIC broth microdilution, H. influenzae GC6896 (ATCC Control); format: cell-based; conditions: 18-22 hours at 35° C.
Method: as §1, §2, §3

E. coli GC2270 (tet(M)) = assay: MIC broth microdilution, E. coli GC2270 (tet(M)); format: cell-based; conditions: MHBII, 18-22 hours at 35° C.
Method: as §1, §2, §3

[19] = system: C. albicans GC3066 ATCC (Control); assay: MIC broth microdilution, C. albicans GC3066 ATCC (Control); format: cell-based; conditions: 18-22 hours at 35° C.
Method: as §1, §2, §3

[20] = system: E. faecalis GC2242 (Van-resistant); assay: MIC broth microdilution, E. faecalis GC2242 (Van-resistant); format: cell-based; conditions: MHBII, 18-22 hours at 35° C.
Method: as §1, §2, §3

[21] = system: S. aureus GC1131 (Clinical); assay: MIC broth microdilution, S. aureus GC1131 (Clinical); format: cell-based; conditions: MHBII, 18-22 hours at 35° C.
Method: as §1, §2, §3

SMILES	minimum inhibitory concentration (MIC) [1]	minimum inhibitory concentration (MIC) [3]	minimum inhibitory concentration (MIC) [4]	minimum inhibitory concentration (MIC) [5]	minimum inhibitory concentration (MIC) [6]	minimum inhibitory concentration (MIC) [8]	minimum inhibitory concentration (MIC) [9]	minimum inhibitory concentration (MIC) [10]	minimum inhibitory concentration (MIC) [11]	minimum inhibitory concentration (MIC) [12]	minimum inhibitory concentration (MIC) [13]	minimum inhibitory concentration (MIC) [14]	minimum inhibitory concentration (MIC) (E. coli GC1073 (tet(B)))	minimum inhibitory concentration (MIC) [15]	minimum inhibitory concentration (MIC) [16]	minimum inhibitory concentration (MIC) [18]	minimum inhibitory concentration (MIC) (E. coli GC2270 (tet(M)))	minimum inhibitory concentration (MIC) [19]	minimum inhibitory concentration (MIC) [20]	minimum inhibitory concentration (MIC) [21]	other results
CN(C)c1cc(NC(=O)CN(O)C2CCCCC2)c(O)c2c1C[C@H]1C[C@H]3[C@H](N(C)C)C(O)=C(C(N)=O)C(=O)[C@@]3(O)C(O)=C1C2=O [Example 1, (4S,4aS,5aR,12aS)-9-[(N-cyclohexyl-N-hydroxyglycyl)amino]-4,7-bis(dimethylamino)-3,10,12,12a-tetrahydroxy-1,11-dioxo-1,4,4a,5,5a,6,11,12a-octahydrotetracene-2-carboxamide]	16	4	>64	0.25	0.25	16	2	8	0.12	0.50	8	1	16	0.25	4	2	8	>64	2	4	ED50 [2]: 7.75 mg/kg; ED50 [7]: 1.56 mg/kg; MIC [17]: 1 µg/mL (≈ 1.59 µM)
CC(C)N(O)CC(=O)Nc1cc(N(C)C)c2c(c1O)C(=O)C1=C(O)[C@]3(O)C(=O)C(C(N)=O)=C(O)[C@@H](N(C)C)[C@@H]3C[C@@H]1C2 [Example 2, (4S,4aS,5aR,12aS)-4,7-bis(dimethylamino)-3,10,12,12a-tetrahydroxy-9-[(N-hydroxy-N-isopropylglycyl)amino]-1,11-dioxo-1,4,4a,5,5a,6,11,12a-octahydrotetracene-2-carboxamide]	4	2	16	0.25	0.25	8	2	4	0.25	1	8	1	16	0.25	4	2	4	>64	2	4	ED50 [2]: 18 mg/kg; ED50 [7]: 0.25 to 0.5 mg/kg; MIC [17]: 1 µg/mL (≈ 1.7 µM)
CN(C)[C@@H]1C(O)=C(C(N)=O)C(=O)[C@@]2(O)C(O)=C3C(=O)c4c(O)c(NC(=O)CN5CCCCO5)cc(I)c4C[C@H]3C[C@@H]12 [Example 9, (4S,4aS,5aR,12aS)-4-(dimethylamino)-3,10,12,12a-tetrahydroxy-7-iodo-9[(1,2-oxazinan-2-ylacetyl)amino]-1,11-dioxo-1,4,4a,5,5a,6,11,12a-octahydrotetracene-2-carboxamide]	2	1	4	1	2	2	>64	1	1	2	>64	4	>64	0.50	4	>64	>64	>64	8	2	–
CN(C)[C@@H]1C(O)=C(C(N)=O)C(=O)[C@@]2(O)C(O)=C3C(=O)c4c(O)c(NC(=O)CN5CCCCO5)cc(-c5cccs5)c4C[C@H]3C[C@@H]12 [Example 10, (4S,4aS,5aR,12aS)-4-(dimethylamino)-3,10,12,12a-tetrahydroxy-9-[(1,2-oxazinan-2-ylacetyl)amino]-1,11-dioxo-7-thien-2-yl-1,4,4a,5,5a,6,11,12a-octahydrotetracene-2-carboxamide]	4	4	8	2	4	4	>64	2	2	2	>64	8	>64	2	4	>64	>64	>64	4	4	–
CN(C)c1cc(NC(=O)CNC(C)(C)C)c(O)c2c1C[C@H]1C[C@H]3[C@H](N(C)C)C(O)=C(C(N)=O)C(=O)[C@@]3(O)C(O)=C1C2=O [GAR-936, reference compound]	–	–	–	–	–	–	–	–	–	–	–	–	–	–	–	–	–	–	–	–	SOD* ED50 [2]: 36 mg/kg; SIV* ED50 [7]: 0.46 mg/kg
CN(C)c1ccc(O)c2c1C[C@H]1C[C@H]3[C@H](N(C)C)C(O)=C(C(N)=O)C(=O)[C@@]3(O)C(O)=C1C2=O [Minocycline, 7-(dimethylamino)-6-demethyl-6-deoxytetracycline, reference compound]	16	–	–	–	–	–	–	8	<0.06	<0.06	2	4	16	4	–	–	64	>64	–	–	ED50 [2]: 0.6 to 0.93 mg/kg; ED50 [7]: 0.37 to 0.42 mg/kg; MIC [17]: 0.25 µg/mL (≈ 0.546 µM)
